Legend:
Assay in all cases: relative viability (nuclei count vs DMSO), 5 days (fraction); higher = more cells survive
COR-L23 = test system: COR-L23
Method in brief: (§1)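 Dosing by pin tool came one day after lung cancer cell lines were seeded in 1536-well plates, using either one drug or a fixed anchor-drug dose plus five library-drug doses (not always all listed) in √10 steps. After 5 days, nuclei were counted on 4× images. Relative viability is treated-well nuclei count divided by vehicle-well nuclei count, and values are medians of duplicate plates.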

H3255 = test system: H3255
Method in brief: as §1

NCI-H596 = test system: NCI-H596
Method in brief: as §1

LCLC-103H = test system: LCLC-103H
Method in brief: as §1

LK-2 = test system: LK-2
Method in brief: as §1

NCI-H2347 = test system: NCI-H2347
Method in brief: as §1

LU99A = test system: LU99A
Method in brief: as §1

LC-2-ad = test system: LC-2-ad
Method in brief: as §1

NCI-H1563 = test system: NCI-H1563
Method in brief: as §1

A-427 = test system: A-427
Method in brief: as §1

Work on `Cc1sc2c(c1C)C(c1ccc(Cl)cc1)=N[C@@H](CC(=O)OC(C)(C)C)c1nnc(C)n1-2` [JQ1] + C[C@]1(O)C[C@@H](c2nc(-c3ccc4ccc(-c5ccccc5)nc4c3)c3c(N)nccn32)C1 [Linsitinib] (partner 1 µM) yielded a relative viability (COR-L23; first compound 0.04 µM) of 0.931, a relative viability (COR-L23; first compound 0.1265 µM) of 0.74 and a relative viability (COR-L23; first compound 0.4 µM) of 0.818. The relative viability (COR-L23; first compound 1.265 µM) was 0.226, the relative viability (COR-L23; first compound 4 µM) was 0.172 and the relative viability (H3255; first compound 0.04 µM) was 0.913. For the same compound, the relative viability (H3255; first compound 0.1265 µM) was 0.728, the relative viability (H3255; first compound 0.4 µM) was 0.881 and the relative viability (H3255; first compound 1.265 µM) was 0.402. The relative viability (H3255; first compound 4 µM) was 0.328, the relative viability (NCI-H596; first compound 0.04 µM) was 1.22 and the relative viability (NCI-H596; first compound 0.1265 µM) was 1.03. For the same compound, the relative viability (NCI-H596; first compound 0.4 µM) was 0.587, the relative viability (NCI-H596; first compound 1.265 µM) was 0.418 and the relative viability (NCI-H596; first compound 4 µM) was 0.361. The relative viability (LCLC-103H; first compound 0.04 µM) was 1.01, the relative viability (LCLC-103H; first compound 0.1265 µM) was 0.751 and the relative viability (LCLC-103H; first compound 0.4 µM) was 0.805. The relative viability (LCLC-103H; first compound 1.265 µM) was 0.608, the relative viability (LCLC-103H; first compound 4 µM) was 0.456 and the relative viability (LK-2; first compound 0.04 µM) was 0.393. For the same compound, the relative viability (LK-2; first compound 0.1265 µM) was 0.662, the relative viability (LK-2; first compound 0.4 µM) was 0.233 and the relative viability (LK-2; first compound 1.265 µM) was 0.176. The relative viability (LK-2; first compound 4 µM) was 0.109, the relative viability (NCI-H2347; first compound 0.04 µM) was 0.934 and the relative viability (NCI-H2347; first compound 0.1265 µM) was 0.747. It also gave a relative viability (NCI-H2347; first compound 0.4 µM) of 0.743, a relative viability (NCI-H2347; first compound 1.265 µM) of 0.632 and a relative viability (NCI-H2347; first compound 4 µM) of 0.45. It also gave a relative viability (LU99A; first compound 0.04 µM) of 0.573, a relative viability (LU99A; first compound 0.1265 µM) of 0.516 and a relative viability (LU99A; first compound 0.4 µM) of 0.325. The relative viability (LU99A; first compound 1.265 µM) was 0.292, the relative viability (LU99A; first compound 4 µM) was 0.202 and the relative viability (LC-2-ad; first compound 0.04 µM) was 0.753. For the same compound, the relative viability (LC-2-ad; first compound 0.1265 µM) was 0.773, the relative viability (LC-2-ad; first compound 0.4 µM) was 0.463 and the relative viability (LC-2-ad; first compound 1.265 µM) was 0.253. The relative viability (LC-2-ad; first compound 4 µM) was 0.265, the relative viability (NCI-H1563; first compound 0.04 µM) was 1.28 and the relative viability (NCI-H1563; first compound 0.1265 µM) was 1.1. The relative viability (NCI-H1563; first compound 0.4 µM) was 0.976, the relative viability (NCI-H1563; first compound 1.265 µM) was 0.722 and the relative viability (NCI-H1563; first compound 4 µM) was 0.646. The relative viability (A-427; first compound 0.04 µM) was 1.19, the relative viability (A-427; first compound 0.1265 µM) was 1.04 and the relative viability (A-427; first compound 0.4 µM) was 1.14. It also gave a relative viability (A-427; first compound 1.265 µM) of 1.06 and a relative viability (A-427; first compound 4 µM) of 0.721.

— the supplement of paper PMC10307832
